Several values for one entry are separate records, joined by “and”; a condition that tells them apart may be missing. Equal values may be shown once.
What was measured:
BT-549 [1] = test: Clonogenicity (recovery) assay, 72 h post-treatment, SRB; conditions: BT-549, 10, 2, and 0.4 µg/mL, in words
in vitro = conditions: human, Cytotoxic activity IC50, MCF-10A, 72 h, mean of three independent experiments ± S.D.
Lewis lung carcinoma = system: Lewis lung carcinoma; design: method as in ref 31 = [31]; 31. NCBI, National Center for Biotechnology Information PubChem BioAssay Database 2007 AID=192, 256 and 270 Available online: https://pubchem.ncbi.nlm.nih.gov/bioassay/192, 256, and 270 (accessed on 3); conditions: subcutaneous inoculation, in words; cited from earlier work
BT-549 [2] = system: BT-549
MCF-10A [3] = system: MCF-10A
MDA-MB-231 [4] = test: Clonogenicity (recovery) assay, 72 h post-treatment, SRB; conditions: MDA-MB-231, 10, 2, and 0.4 µg/mL, in words
MCF-7 [5] = system: MCF-7
MCF-7 [6] = test: Clonogenicity (recovery) assay, 72 h post-treatment, SRB
MDA-MB-231 [7] = system: MDA-MB-231
MCF-10A [8] = test: Clonogenicity (recovery) assay, 72 h post-treatment, SRB; conditions: MCF-10A, the four tested concentrations, in words

COc1ccc([C@@H]2c3cc4c(cc3C[C@H]3COC(=O)[C@@H]32)OCO4)cc1OC [Compound 3, 5′-demethoxydeoxypodophyllotoxin]
effect on proliferation and recovery after treatment (BT-549 [1]): cytotoxicity with a lack of recovery
IC50 at 72 h (in vitro): 90 ± 9 nM
biological activity in Lewis lung carcinoma model (Lewis lung carcinoma): did not show biological activities
Potency compared to control POD (BT-549 [2]; BT-549, relative to POD): 0.252
Potency compared to control VP-16 (BT-549 [2]; BT-549, relative to VP-16): 7.6 and 7.661
selectivity according to the selectivity criteria (SI ≥ 10 selective) (BT-549 [2]; BT-549 vs MCF-10A, in words): non-selective compound
IC50 (BT-549 [2]; read-out: Cytotoxic activity IC50, BT-549, 72 h, mean of three independent experiments ± S.D.): 21 ± 3 nM
IC50 (MCF-10A [3]; read-out: Cytotoxic activity IC50, 72 h, mean of three independent experiments ± S.D.): 92 ± 9 nM
Potency compared to control POD (MCF-10A [3]; relative to POD): 0.214
Potency compared to control VP-16 (MCF-10A [3]; relative to VP-16): 0.507
effect on proliferation and recovery after treatment (MDA-MB-231 [4]): cytotoxicity with a lack of recovery
Selectivity index (MCF-7 [5]; IC50 MCF-10A / IC50 MCF-7): 2.33
percentage of survival (MCF-7 [5]; MCF-7, 0.08 µg/mL, 72 h): 55% ± 9.9%
Potency compared to control POD (MCF-7 [5]; MCF-7, relative to POD): 0.449
Potency compared to control VP-16 (MCF-7 [5]; MCF-7, relative to VP-16): 3.124
IC50 (MCF-7 [5]; read-out: Cytotoxic activity IC50, MCF-7, 72 h, mean of three independent experiments ± S.D.): 40 ± 11 nM
percentage of recovery (MCF-7 [6]; MCF-7, 0.08 µg/mL, 72 h post-treatment): 111% ± 13%
effect on proliferation and recovery after treatment (MCF-7 [6]; MCF-7, 10, 2, and 0.4 µg/mL, in words): cytotoxicity with a lack of recovery
Selectivity index (MDA-MB-231 [7]; IC50 MCF-10A / IC50 MDA-MB-231): 0.64
Potency compared to control POD (MDA-MB-231 [7]; MDA-MB-231, relative to POD): 0.168
Potency compared to control VP-16 (MDA-MB-231 [7]; MDA-MB-231, relative to VP-16): 0.268
IC50 (MDA-MB-231 [7]; read-out: Cytotoxic activity IC50, MDA-MB-231, 72 h, mean of three independent experiments ± S.D.): 145 ± 45 nM
effect on proliferation in the cytotoxicity and clonogenicity assays (MCF-10A [8]): completely inhibited proliferation
